Test system: C57BLKS/J db/db mice
Assay: 3 months feeding study on muscle mass in db/db mice (NMR muscle mass, body weight, food intake)
Format: in vivo
Details: for effect on muscle loss (in words) / muscle mass increase: db/db mice, 3 months of treatment; for effect on muscle loss (in words) / muscle mass increase / BW (g), change from baseline / Muscle (g), change from baseline: 0.08% of diet; for muscle mass increase: control reduced by 2%; for BW (g), change from baseline / Muscle (g), change from baseline / BW (g), 5 months old mice / Muscle (g), 5 months old mice: male db/db mice, after 3 months of treatment; for BW (g), 5 months old mice / Muscle (g), 5 months old mice: 0.08% of diet as feed-ad-mix; for Muscle (g), 5 months old mice: total muscle mass by NMR
Procedure: The efficacy of resveratrol, EGCG as well as the combination of both compounds on muscle mass was tested in a 3 months feeding study in C57BLKS/J db/db mice (n=20/group). C57BLKS/J db/db mice suffer from severe metabolic disorder due to a defect in the leptin receptor and loss muscle mass as they age. Muscle wasting has been associated with chronic metabolic derangements. Moreover, muscle wasting induced by a variety of means in both rodents and humans results in similar changes in muscle anatomy, cross-sectional area, function, fiber type switching, contractile protein expression, and histology. […] These agents include anabolic steroids, growth hormone, insulin-like growth factor 1, and beta adrenergic agonists. […] Therefore, the rodent model can be used to evaluate the efficacy of compounds inhibiting muscle wasting.
Male db/db mice were obtained from Jackson Laboratory (Bar Harbor, Me., USA). Adult mice at the age of 8 weeks were used in the experiment. Mice were housed individually in plastic cages with bedding and allowed free access to standard rodent food and tap water. The animal rooms were controlled for temperature (24° C.), humidity (55%), and light (12-h light-dark cycle). The animals were randomized into four groups. Resveratrol and EGCG were administered as feed-ad-mix. Corn cellulose (1% of diet) served as a carrier substance for resveratrol and EGCG as well as a placebo when used alone. Group 1 received placebo, group 2 received a diet containing 0.08% of resveratrol; group 3 received a diet containing 0.08% of EGCG; and group 4 received a diet containing 0.08% of resveratrol and 0.08% of EGCG. Body weight and food intake were determined over the course of the study. Total muscle mass was determined by nuclear magnetic resonance (NMR) measurement after 3 months of treatment. There was no difference in food intake between the groups over the study period.

Molecule	effect on muscle loss (in words)	muscle mass increase [%]	BW (g), change from baseline [g]	Muscle (g), change from baseline [g]	BW (g), 5 months old mice [g]	Muscle (g), 5 months old mice [g]
(−)-epigallocatechin gallate [EGCG]	prevents muscle loss	3	1.0	0.5	31.4	16.2
Oc1ccc(C=Cc2cc(O)cc(O)c2)cc1 [Resveratrol, resveratrol]	prevents muscle loss	6	3.9	1.0	34.2	17.0
